In patent publication US5629198A (priority 1991, dated 1997):

Tests used:
MOLT-4/ARV = experiment: Killing effect on cells persistently infected with HIV (Test Example 1), trypan blue; assay type: cell-based, human; conditions: 3 days
Experimental: (§1) The cell killing effects of test substances were determined using a cell strain persistently infected with HIV in MOLT-4 cells and MOLT-4 cells.
(§2) MOLT4/HTLV-IIIB, MOLT4/ARV and MOLT4 cell strains were separately inoculated in proportions of 4×10^4 cells/well (200 μl) on a 96-well plate, and the above test substances in various concentrations were separately added in an amount of 20 μl thereto. After each cell sample was cultured for 3 days at 37° C. in the presence of 5% CO2, the culture was diluted to a triple or quadruple amount, thereby counting the number of living cells by a trypan blue dye exclusion test. As a control, 20 μl of PBS were added in place of each test substance. Each numerical value is expressed in terms of the percentage of living cells to the control.

MOLT-4/HTLV-IIIB = experiment: as above; assay type: cell-based, human; conditions: for killing effect on HIV-infected cells: summary
Experimental: as §1, §2

MOLT-4 = experiment: Killing effect on uninfected cells (Test Example 1), trypan blue; assay type: cell-based, human; conditions: 3 days
Experimental: as §1, §2

HTLV-IIIB in MT-4 cells = experiment: Anti-HIV effect: TCID50 of infectious virus from infected MT-4 cells (Test Example 5); assay type: cell-based, HIV (HTLV-IIIB); conditions: for TCID50 (quantity of infectious virus): 4 days, positive control 3.31 × 10^7; for proliferation inhibiting effect on HIV: summary
Experimental: The inhibitory effects of test substances on the cytopathy and HIV antigen production of MT-4 cells due to HIV infection were determined.
MT-4 cells belonging to a cell strain persistently infected with HTLV-1 are high in sensitivity to HIV and promptly die out when infected. MT-4/HIV cells which are MT-4 cells infected with HIV are used for screening anti-HIV agents making good use of this nature.
After MT-4 cells (1.2×10^7 cells) were infected for 2 hours at 37° C. with 3.2 ml of HTLV-IIIB (10^7 TCID50 /ml) obtained from a culture supernatant of a cell strain persistently infected with HIV, i.e., […], the cells were washed. After the cells were then inoculated on a 48-well microplate in a proportion of 1×10^5 cells/well, the test substances were separately added in an amount of 100 μl. As a negative control, there was used a culture obtained by adding 3.2 ml of a culture supernatant after culturing MOLT-4 cells for 3 days to MT-4 cells (4.7×10^6 cells), conducting culture for 2 hours at 37° C., washing the cells in the same manner as described above, inoculating them in a proportion of 1×10^5 cells/well and adding PBS in place of the test substances.
Upon elapsed time of 4 days after the culture, each supernatant was assayed on a P24gag protein based on an EIA kit produced by Abbott Labs, and the number of living cells was counted by the Trypan Blue dye exclusion method, and moreover, TCID50 indicative of an actual quantity of infectious virus was calculated.

[1] = tested on: Molt-4/C18 cells infected with Molt-4/HTLV-IIIB culture supernatant; experiment: Inhibiting effect on cytopathy, MTT assay (Test Example 8 (2)); assay type: cell-based; conditions: Homo sapiens, MOLT-4, 96 h, read-out: Number of living cells
Experimental: (2) The inhibiting effects of test substances on the formation of multinucleated giant cells and on cytopathy in a Molt-4/C18 cell-infected system were investigated.
Molt-4/C18 cells in a logarithmic growth phase were inoculated in a proportion of 2×10^4 cells/well (20 μl) on a 96-well flat-bottom plate, and 30 μl of a culture supernatant of Molt-4/HTLV-IIIB cells were added. Then, solutions of the test substances in various concentrations were separately added in an amount of 50 μl, followed by their culture at 37° C. under conditions of 5% CO2. To wells for a positive control, 50 μl of a culture medium were added in place of the solution of each test substance, while to wells for a negative control, 30 μl of the culture medium were added instead of the culture supernatant. Defining the day the culture was started as Day 0, the culture was continuously conducted for 4 days to observe a state of formation of multinucleated giant cells and to count the number of living cells by the MTT assay.

[2] = in vivo; cited from earlier work
[3] = tested on: cells persistently infected with HIV; conditions: cited from earlier work
MT-4/LAV-infected system = conditions: cited from earlier work
[4] = Homo sapiens, MOLT-4, 72 h, 1 μM, read-out: living cells (percentage to the control)

Cc1cn([C@H]2C[C@H](N=[N+]=[N-])[C@@H](CO)O2)c(=O)[nH]c1=O [AZT, 3'-azido-3'-deoxythymidine]
viability at 1 µM (MOLT-4/ARV; [4]): 82% | viability at 1 µM (MOLT-4/HTLV-IIIB; Homo sapiens, MOLT-4, 72 h, 1 μM, 3 days, read-out: living cells (percentage to the control)): 71% | viability at 1 µM (MOLT-4; [4]): 55% | TCID50 (quantity of infectious virus) (HTLV-IIIB in MT-4 cells; 1 μM): 5.94 × 10^4 TCID50 /ml | viability at 25 µM ([1]; 25 (μM), 4 days, positive control 27): 84% | viability at 0.004 µM [1]: 42% | viability at 0.02 µM [1]: 69% | viability at 0.1 µM [1]: 79% | viability at 0.5 µM [1]: 84% | side effects [2]: a myelodepresant effect is remarkably observed as a side effect in addition to headache and gastrointestinal disorders | effect on cells already infected with HIV [3]: no effect on cells already infected with HIV

C=CC1=C(C)c2cc3[n-]c(cc4[n-]c(cc5nc(cc1n2)C(C)=C5C=C)c(C)c4CCC(=O)O)c(CCC(=O)O)c3C.[Cl-].[Fe+3] [Hemin]
living cells (percentage to the control) (MOLT-4/ARV; 10 μM): 94% | living cells (percentage to the control) (MOLT-4/ARV; 40 μM): 93% | living cells (percentage to the control) (MOLT-4/HTLV-IIIB; 10 μM, 3 days): 100% | living cells (percentage to the control) (MOLT-4/HTLV-IIIB; 40 μM, 3 days): 90% | killing effect on HIV-infected cells (MOLT-4/HTLV-IIIB): no killing effect on HIV-infected cells | living cells (percentage to the control) (MOLT-4; 10 μM): 98% | living cells (percentage to the control) (MOLT-4; 40 μM): 99% | TCID50 (quantity of infectious virus) (HTLV-IIIB in MT-4 cells; 10 μM): 1.52 × 10^7 TCID50 /ml | proliferation inhibiting effect on HIV (HTLV-IIIB in MT-4 cells): have a proliferation inhibiting effect on HIV

C=CC1=C(C)c2cc3[nH]c(cc4nc(cc5[nH]c(cc1n2)c(C)c5CCC(=O)O)C(CCC(=O)O)=C4C)c(C)c3C=C [protoporphyrin]
killing effect on HIV-infected cells (MOLT-4/HTLV-IIIB): no killing effect on HIV-infected cells | proliferation inhibiting effect on HIV (HTLV-IIIB in MT-4 cells): have a proliferation inhibiting effect on HIV | anti-HIV activity (MT-4/LAV-infected system): exhibits an anti-HIV activity
